Test results from patent US20250186600A1, “EXCIPIENT COMPOUNDS FOR PROTEIN FORMULATIONS” (Comera Life Sciences, Inc., priority 2020, published 2025).
Structures can show the parent of a compound that is named as a salt.

Assays:
[1] = test system: proteins described in Table 50; experiment: DLS diffusion interaction parameter kD (Example 49); type: physicochemical; settings: mixed 1:1 with protein solution, 20 mM His HCl pH 6, 25° C.
Description: The resulting solution was titrated to pH 6 by dropwise addition of 1 M hydrochloric acid. After pH adjustment, the buffer was diluted to a final volume of 1 L in a volumetric flask with Type 1 ultrapure water. All excipients used in this Example, listed in Table 50 below, were of the highest purity, and were obtained from Sigma Aldrich (St. Louis, MO) or Cayman Chemical (Ann Arbor, MI).
A series of six test protein solutions were prepared using the proteins described in Table 50, ranging in protein concentration from about 4 mg/mL to about 20 mg/mL, all in 20 mM His HCl buffer at pH 6. […] A second centrifuge step was completed to remove air bubbles. The diffusion interaction parameter (kD) of these protein-excipient formulations was measured by dynamic light scattering (DLS) in dilute solution as a way of probing the impact of excipients on protein-protein interactions (PPI). […] A more negative kD indicated a stronger net attractive PPI and a more positive kD indicated a stronger net repulsive PPI.

ustekinumab = experiment: Stabilization at low pH, Sypro orange fluorescence (Example 45); settings: excipient 5 mg/mL, ustekinumab 1 mg/mL, glycine acidification buffer pH 2.6, Sypro orange fluorescence
[2] = Caffeine solubility with co-solutes during refrigerated storage (Example 61); type: physicochemical; parameters: key: (PPT)—precipitate observed; (—)—clear solution observed; settings: 50 mM co-solute, 25 mM histidine pH 6, stored 2 to 5° C.
Description: The resulting microplates were then sealed with microplate tape and stored in a refrigerator with the temperature maintained in the range of 2 to 5° C. Over the course of storage, the microplates were visually observed for evidence of precipitate in the well.

[3] = excipient stock concentration 100 mM
[4] = excipient stock concentration 200 mM

Cl.NCC(O)c1ccc(O)c(O)c1 (racemic) [DL-Norepinephrine HCl]
Omalizumab kD [1, 3]: -19.8 mL/g | Ustekinumab kD [1, 3]: 1.5 mL/g

Cn1cnc(CC(=O)O)c1 [1-methyl-4-imidazoleacetic acid]
Omalizumab kD [1, 4]: -21.8 mL/g | Ustekinumab kD [1, 4]: 47.4 mL/g

O=S(=O)([O-])CCC[n+]1ccccc1 [3-(1-Pyridinio)-1-propanesulfonate]
Omalizumab kD [1, 4]: -30.2 mL/g | Ustekinumab kD [1, 4]: 26.7 mL/g

Nc1ccc(C(=O)O)cc1 [4-Aminobenzoic acid]
Omalizumab kD [1, 4]: -17.4 mL/g | Ustekinumab kD [1, 4]: 1.5 mL/g

COc1cc(C=CC(=O)O)ccc1O [4-hydroxy-3-methoxycinnamic acid]
Omalizumab kD [1, 4]: -26.6 mL/g | Ustekinumab kD [1, 4]: 21.0 mL/g

C1COCCOCCOCCOCCO1 [15-crown-5 ether]
Omalizumab kD [1, 4]: -25.0 mL/g | Ustekinumab kD [1, 4]: 26.7 mL/g

NC(=NO)c1ccccc1 [Benzamide oxime]
% change in stability (ustekinumab): 70.6%

CC(=O)CC(=O)OCc1ccccc1 [Benzyl acetonacetate]
Omalizumab kD [1, 3]: -27.0 mL/g | Ustekinumab kD [1, 3]: 26.6 mL/g

OCc1ccccc1 [Benzyl alcohol]
Day 1 (visual observation for precipitate) ([2]; caffeine 7.5 mg/mL): — | Day 7 (visual observation for precipitate) ([2]; caffeine 7.5 mg/mL): — | Day 18 (visual observation for precipitate) ([2]; caffeine 7.5 mg/mL): — | Day 27 (visual observation for precipitate) ([2]; caffeine 7.5 mg/mL): — | Day 56 (visual observation for precipitate) ([2]; caffeine 7.5 mg/mL): — | Day 1 (visual observation for precipitate) ([2]; caffeine 10 mg/mL): — | Day 7 (visual observation for precipitate) ([2]; caffeine 10 mg/mL): — | Day 18 (visual observation for precipitate) ([2]; caffeine 10 mg/mL): — | Day 27 (visual observation for precipitate) ([2]; caffeine 10 mg/mL): — | Day 56 (visual observation for precipitate) ([2]; caffeine 10 mg/mL): — | Day 1 (visual observation for precipitate) ([2]; caffeine 12.5 mg/mL): — | Day 7 (visual observation for precipitate) ([2]; caffeine 12.5 mg/mL): — | Day 18 (visual observation for precipitate) ([2]; caffeine 12.5 mg/mL): — | Day 27 (visual observation for precipitate) ([2]; caffeine 12.5 mg/mL): — | Day 56 (visual observation for precipitate) ([2]; caffeine 12.5 mg/mL): — | Day 1 (visual observation for precipitate) ([2]; caffeine 15 mg/mL): — | Day 7 (visual observation for precipitate) ([2]; caffeine 15 mg/mL): — | Day 18 (visual observation for precipitate) ([2]; caffeine 15 mg/mL): — | Day 27 (visual observation for precipitate) ([2]; caffeine 15 mg/mL): PPT | Day 56 (visual observation for precipitate) ([2]; caffeine 15 mg/mL): PPT | Day 1 (visual observation for precipitate) ([2]; caffeine 20 mg/mL): — | Day 7 (visual observation for precipitate) ([2]; caffeine 20 mg/mL): PPT | Day 18 (visual observation for precipitate) ([2]; caffeine 20 mg/mL): PPT | Day 27 (visual observation for precipitate) ([2]; caffeine 20 mg/mL): PPT | Day 56 (visual observation for precipitate) ([2]; caffeine 20 mg/mL): PPT

CCN(CC)CCCC(C)Nc1ccnc2cc(Cl)ccc12 (stereo not shown) [Chloroquine Phosphate]
Omalizumab kD [1, 3]: -26.4 mL/g | Ustekinumab kD [1, 3]: 15.2 mL/g

N[C@@H]1CON=C1O [Cycloserine]
Omalizumab kD [1, 4]: -14.7 mL/g | Ustekinumab kD [1, 4]: -13.6 mL/g

Nc1ccn([C@@H]2O[C@H](COP(=O)(O)O)[C@@H](O)[C@H]2O)c(=O)n1 [Cytidine monophosphate]
% change in stability (ustekinumab): 83.1%

O=C(O)CN(CCN(CC(=O)O)CC(=O)O)CCN(CC(=O)O)CC(=O)O [Diethylenetriaminepentaacetic acid]
% change in stability (ustekinumab): 11.8%

Nc1nc(=O)n([C@@H]2CS[C@H](CO)O2)cc1F [Emtricitabine]
% change in stability (ustekinumab): 2.9%

Nn1nnc2ccccc21 [Excipient 1-aminobenzotriazole, 1-aminobenzotriazole]
Omalizumab kD [1, 4]: -24.1 mL/g | Ustekinumab kD [1, 4]: 24.0 mL/g

Cc1ncc[nH]1 [Excipient 2-Methylimidazole, 2-Methylimidazole]
Omalizumab kD [1, 4]: -24.5 mL/g | Ustekinumab kD [1, 4]: -0.5 mL/g

N=C(N)NC(=O)Cc1c(Cl)cccc1Cl [Guanfacine HCl]
Ustekinumab kD [1, 3]: 36.1 mL/g

COc1cc(CC(=O)O)ccc1O [Homovanillic acid]
Omalizumab kD [1, 4]: -21.2 mL/g | Ustekinumab kD [1, 4]: 5.5 mL/g

O=C(O)C1=CCNCC1 [Isoguvacine HCl]
Omalizumab kD [1, 4]: -7.9 mL/g | Ustekinumab kD [1, 4]: 1.0 mL/g

O=c1cc(CO)occ1O [Kojic Acid]
Omalizumab kD [1, 4]: -29.1 mL/g | Ustekinumab kD [1, 4]: 33.2 mL/g

CN1CCCC1=O [N-Methyl-2-pyrrolidone]
Day 1 (visual observation for precipitate) ([2]; caffeine 7.5 mg/mL): — | Day 7 (visual observation for precipitate) ([2]; caffeine 7.5 mg/mL): — | Day 18 (visual observation for precipitate) ([2]; caffeine 7.5 mg/mL): — | Day 27 (visual observation for precipitate) ([2]; caffeine 7.5 mg/mL): — | Day 56 (visual observation for precipitate) ([2]; caffeine 7.5 mg/mL): — | Day 1 (visual observation for precipitate) ([2]; caffeine 10 mg/mL): — | Day 7 (visual observation for precipitate) ([2]; caffeine 10 mg/mL): — | Day 18 (visual observation for precipitate) ([2]; caffeine 10 mg/mL): — | Day 27 (visual observation for precipitate) ([2]; caffeine 10 mg/mL): — | Day 56 (visual observation for precipitate) ([2]; caffeine 10 mg/mL): — | Day 1 (visual observation for precipitate) ([2]; caffeine 12.5 mg/mL): — | Day 7 (visual observation for precipitate) ([2]; caffeine 12.5 mg/mL): — | Day 18 (visual observation for precipitate) ([2]; caffeine 12.5 mg/mL): — | Day 27 (visual observation for precipitate) ([2]; caffeine 12.5 mg/mL): — | Day 56 (visual observation for precipitate) ([2]; caffeine 12.5 mg/mL): PPT | Day 1 (visual observation for precipitate) ([2]; caffeine 15 mg/mL): — | Day 7 (visual observation for precipitate) ([2]; caffeine 15 mg/mL): — | Day 18 (visual observation for precipitate) ([2]; caffeine 15 mg/mL): PPT | Day 27 (visual observation for precipitate) ([2]; caffeine 15 mg/mL): PPT | Day 56 (visual observation for precipitate) ([2]; caffeine 15 mg/mL): PPT | Day 1 (visual observation for precipitate) ([2]; caffeine 20 mg/mL): PPT | Day 7 (visual observation for precipitate) ([2]; caffeine 20 mg/mL): PPT | Day 18 (visual observation for precipitate) ([2]; caffeine 20 mg/mL): PPT | Day 27 (visual observation for precipitate) ([2]; caffeine 20 mg/mL): PPT | Day 56 (visual observation for precipitate) ([2]; caffeine 20 mg/mL): PPT

NC(=O)CN1CCCC1=O [Piracetam]
Omalizumab kD [1, 4]: -23.6 mL/g | Ustekinumab kD [1, 4]: 27.3 mL/g

O=C([O-])c1ccccc1.[Na+] [Sodium benzoate]
Day 1 (visual observation for precipitate) ([2]; caffeine 7.5 mg/mL): — | Day 7 (visual observation for precipitate) ([2]; caffeine 7.5 mg/mL): — | Day 18 (visual observation for precipitate) ([2]; caffeine 7.5 mg/mL): — | Day 27 (visual observation for precipitate) ([2]; caffeine 7.5 mg/mL): — | Day 56 (visual observation for precipitate) ([2]; caffeine 7.5 mg/mL): — | Day 1 (visual observation for precipitate) ([2]; caffeine 10 mg/mL): — | Day 7 (visual observation for precipitate) ([2]; caffeine 10 mg/mL): — | Day 18 (visual observation for precipitate) ([2]; caffeine 10 mg/mL): — | Day 27 (visual observation for precipitate) ([2]; caffeine 10 mg/mL): — | Day 56 (visual observation for precipitate) ([2]; caffeine 10 mg/mL): — | Day 1 (visual observation for precipitate) ([2]; caffeine 12.5 mg/mL): — | Day 7 (visual observation for precipitate) ([2]; caffeine 12.5 mg/mL): — | Day 18 (visual observation for precipitate) ([2]; caffeine 12.5 mg/mL): — | Day 27 (visual observation for precipitate) ([2]; caffeine 12.5 mg/mL): — | Day 56 (visual observation for precipitate) ([2]; caffeine 12.5 mg/mL): — | Day 1 (visual observation for precipitate) ([2]; caffeine 15 mg/mL): — | Day 7 (visual observation for precipitate) ([2]; caffeine 15 mg/mL): — | Day 18 (visual observation for precipitate) ([2]; caffeine 15 mg/mL): — | Day 27 (visual observation for precipitate) ([2]; caffeine 15 mg/mL): — | Day 56 (visual observation for precipitate) ([2]; caffeine 15 mg/mL): PPT | Day 1 (visual observation for precipitate) ([2]; caffeine 20 mg/mL): — | Day 7 (visual observation for precipitate) ([2]; caffeine 20 mg/mL): — | Day 18 (visual observation for precipitate) ([2]; caffeine 20 mg/mL): PPT | Day 27 (visual observation for precipitate) ([2]; caffeine 20 mg/mL): PPT | Day 56 (visual observation for precipitate) ([2]; caffeine 20 mg/mL): PPT

O.O.O.O.O.O.O.O.O.O.[Na+].[Na+].[O-]B1OB2OB([O-])OB(O1)O2 [Sodium borate]
Omalizumab kD [1, 4]: -28.8 mL/g | Ustekinumab kD [1, 4]: 17.9 mL/g

CN(C)CCN(C)C.Cl [Tetramethylethylenediamine HCl]
Omalizumab kD [1, 4]: -14.6 mL/g | Ustekinumab kD [1, 4]: 0.1 mL/g

Cc1ncc(CO)c(CO)c1O.Cl [pyridoxine HCl]
Omalizumab kD [1, 4]: -4.3 mL/g | Ustekinumab kD [1, 4]: -0.5 mL/g

C#CCN[C@@H]1CCc2ccccc21 [rasagiline mesylate]
Omalizumab kD [1, 3]: -24.1 mL/g | Ustekinumab kD [1, 3]: 26.5 mL/g
